From US9637469B2, “Pyridine derivative” (Teijin Pharma Limited, priority 2012, dated 2017)

Target: T1, human URAT1 (Homo sapiens, UniProt Q96S37)
T1 construct: Full-length cDNA of human URAT1 (hURAT1)
T1 sequence (Q96S37 1-553): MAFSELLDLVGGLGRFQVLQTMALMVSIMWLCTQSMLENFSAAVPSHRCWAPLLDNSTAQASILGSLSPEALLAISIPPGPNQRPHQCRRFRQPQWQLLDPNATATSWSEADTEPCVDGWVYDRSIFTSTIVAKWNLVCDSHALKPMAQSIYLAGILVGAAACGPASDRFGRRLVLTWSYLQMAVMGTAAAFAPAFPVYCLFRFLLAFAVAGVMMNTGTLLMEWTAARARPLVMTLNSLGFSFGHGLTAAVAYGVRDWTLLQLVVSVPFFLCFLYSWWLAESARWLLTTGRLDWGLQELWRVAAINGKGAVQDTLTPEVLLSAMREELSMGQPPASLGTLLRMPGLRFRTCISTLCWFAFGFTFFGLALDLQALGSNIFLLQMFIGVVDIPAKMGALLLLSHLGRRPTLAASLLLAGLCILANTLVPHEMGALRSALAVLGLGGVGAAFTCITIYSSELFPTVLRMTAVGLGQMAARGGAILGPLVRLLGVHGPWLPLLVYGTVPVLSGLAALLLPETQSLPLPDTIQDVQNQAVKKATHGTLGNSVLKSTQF
Test: Test for inhibition of uric acid transport using human URAT1-expressing cells;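 also: three stars up to 0.2 µM two stars 0.2-2 µM one star 2-20 µM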
Format: cell-based
Conditions: HEK 293 cells expressing human URAT1, 14C-labeled uric acid 25 μM, uptake 37° C. for 5 min; for IC50: read-out: Inhibitory Activity (IC50 of uric acid transport inhibition)
Description: (1) Preparation of the Test Compound
The test compound was dissolved in DMSO (produced by Sigma) to a concentration of 20 mM and was subsequently used by diluting to desired concentrations.
(2) Test for Inhibition of Uric Acid Transport Using Human URAT1-Expressing Cells;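 also: three stars up to 0.2 µM two stars 0.2-2 µM one star 2-20 µM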
Full-length cDNA of human URAT1 (hURAT1) (produced by OriGene Technologies, Inc., NCBI Reference Sequence: NM 144585) was subcloned into an expression vector, pCMV6-Kan/Neo (produced by OriGene Technologies, Inc.), and hURAT1 gene was transfected into human embryonic kidney-derived cells (HEK 293 cells) by liposome method using Lipofectamine 2000 (produced by Invitrogen Corporation), whereupon HEK 293 cells expressing human URAT1 gene were screened by its Geneticin resistance. By a method similar to the following method, functional expression of human URAT1 gene was confirmed by using transport of ^14C-labeled uric acid into the cells as an index.
The HEK 293 cells expressing human URAT1 were seeded in a 24-well cell culture dish to a density of 3×10^5 cells/mL/well and were cultured in Dulbecco's modified Eagle's medium (D-MEM medium) containing 10% fetal bovine serum at 37° C. for 2 days. Thereafter, the following test for inhibition of uric acid transport was performed.
After the medium was removed by aspiration from each well, the medium was replaced with a solution obtained by substituting NaCl in Hank's Balanced Salt Solution (HBSS) with Na gluconate (hereinafter, HBSS/Na-gluconate) and the cells were preincubated at 37° C. for about 10 minutes. HBSS/Na-gluconate was removed by aspiration and a ^14C-uric acid solution that was warmed at 37° C. in advance containing various concentrations of the Example compound described in (1) and a radioactive ligand (^14C-labeled uric acid; final concentration 25 μM) was added and an uptake reaction was carried out by incubating at 37° C. for 5 min. After the incubation, ^14C-labeled uric acid solution was removed by aspiration and the cells were washed three times with ice-cold HBSS. The HEK 293 cells expressing human URAT1 were lysed in 0.2 mol/L aqueous NaOH (hereafter, the cell sample) and the cell samples were collected. The cell sample and a liquid scintillation liquid, ULTIMA GOLD (produced by PerkinElmer, Inc.) were mixed and the radioactivity was measured by a liquid scintillation counter (Beckman Coulter, Inc.).
The uric acid transport rate of the Example compound at each concentration (% of control uptake) was calculated relative to the radioactivity (radioactivity in human URAT1 expressing HEK 293 cells without addition of the Example compound (DMSO addition)) showing URAT1-specific uric acid transport as 100%, and the concentration (IC50) of the Example compound at which the uric acid transport rate is inhibited by 50% was determined. In addition, the symbols (*, **, and ***) in the table represent the following inhibitory activity values: • IC50≦_ 0.2 μM: *** • 0.2 μM<IC50≦2 μM: ** • 2 μM<IC50≦20 μM: *

| SMILES | Inhibitory Activity (IC50 of uric acid transport inhibition) | IC50 [µM] |
| --- | --- | --- |
| CC(C)c1nc(-c2cccnc2)n(Cc2cccc3ccsc23)c1C(=O)O [Compound A83, 1-(benzo[b]thiophen-7-ylmethyl)-4-isopropyl-2-(pyridin-3-yl)-1H-imidazole-5-carboxylic acid] | * * | – |
| O=C(O)c1c(C(F)(F)F)nc(-c2cccnc2)n1Cc1cccc2ccsc12 [Compound A84, 1-(benzo[b]thiophen-7-ylmethyl)-2-(pyridin-3-yl)-4-(trifluoromethyl)-1H-imidazole-5-carboxylic acid] | * * | – |
| Cc1nc(-c2cccnc2)n(Cc2cc(F)cc3ccsc23)c1C(=O)O [Compound A85, 1-((5-fluorobenzo[b]thiophen-7-yl)methyl)-4-methyl-2-(pyridin-3-yl)-1H-imidazole-5-carboxylic acid] | * * * | – |
| O=C(O)c1c(C2CC2)nc(-c2cccnc2)n1Cc1cc(F)cc2ccsc12 [Compound A86, 4-cyclopropyl-1-((5-fluorobenzo[b]thiophen-7-yl)methyl)-2-(pyridin-3-yl)-1H-imidazole-5-carboxylic acid] | * * * | – |
| Cc1nc(-c2cccnc2)n(C(C)c2cc(Cl)ccc2Cl)c1C(=O)O (centres unmarked) [Compound A87] | – | 2 to 20 |
| O=C(O)c1c(Cl)nc(-c2cccnc2)n1Cc1cc(Cl)ccc1Cl [Compound A88, 4-chloro-1-(2,5-dichlorobenzyl)-2-(pyridin-3-yl)-1H-imidazole-5-carboxylic acid] | * * * | – |
| O=C(O)c1c(Br)nc(-c2cccnc2)n1Cc1cc(Cl)ccc1Cl [Compound A89, 4-bromo-1-(2,5-dichlorobenzyl)-2-(pyridin-3-yl)-1H-imidazole-5-carboxylic acid] | * * * | – |
| O=C(O)c1c(I)nc(-c2cccnc2)n1Cc1cc(Cl)ccc1Cl [Compound A90, 1-(2,5-dichlorobenzyl)-4-iodo-2-(pyridin-3-yl)-1H-imidazole-5-carboxylic acid] | * * * | – |
| O=C(O)c1c(-c2ccccc2)nc(-c2cccnc2)n1Cc1cc(Cl)ccc1Cl [Compound A91, 1-(2,5-dichlorobenzyl)-4-phenyl-2-(pyridin-3-yl)-1H-imidazole-5-carboxylic acid] | * * * | – |
| O=C(O)c1c(-c2cccc(F)c2)nc(-c2cccnc2)n1Cc1cc(Cl)ccc1Cl [Compound A92, 1-(2,5-dichlorobenzyl)-4-(3-fluorophenyl)-2-(pyridin-3-yl)-1H-imidazole-5-carboxylic acid] | * * * | – |
| O=C(O)c1c(-c2ccc(F)cc2)nc(-c2cccnc2)n1Cc1cc(Cl)ccc1Cl [Compound A93, 1-(2,5-dichlorobenzyl)-4-(4-fluorophenyl)-2-(pyridin-3-yl)-1H-imidazole-5-carboxylic acid] | * * * | – |
| O=C(O)c1c(-c2cccnc2)nc(-c2cccnc2)n1Cc1cc(Cl)ccc1Cl [Compound A94, 1-(2,5-dichlorobenzyl)-2,4-di(pyridin-3-yl)-1H-imidazole-5-carboxylic acid] | * * | – |
| O=C(O)c1c(-c2ccncc2)nc(-c2cccnc2)n1Cc1cc(Cl)ccc1Cl [Compound A95] | – | 2 to 20 |
| COc1nc(-c2cccnc2)n(Cc2cc(Cl)ccc2Cl)c1C(=O)O [Compound A96, 1-(2,5-dichlorobenzyl)-4-methoxy-2-(pyridin-3-yl)-1H-imidazole-5-carboxylic acid] | * * * | – |
| O=C(O)c1c(OCCO)nc(-c2cccnc2)n1Cc1cc(Cl)ccc1Cl [Compound A97] | – | 2 to 20 |
| O=C(O)c1c(OCC(F)(F)F)nc(-c2cccnc2)n1Cc1cc(Cl)ccc1Cl [Compound A98, 1-(2,5-dichlorobenzyl)-2-(pyridin-3-yl)-4-(2,2,2-trifluoroethoxy)-1H-imidazole-5-carboxylic acid] | * * * | – |
| Cc1ccc(Oc2nc(-c3cccnc3)n(Cc3cc(Cl)ccc3Cl)c2C(=O)O)cc1 [Compound A99, 1-(2,5-dichlorobenzyl)-2-(pyridin-3-yl)-4-(p-tolyloxy)-1H-imidazole-5-carboxylic acid] | * * * | – |
| O=C(O)c1c(Oc2ccc(F)cc2)nc(-c2cccnc2)n1Cc1cc(Cl)ccc1Cl [Compound A100, 1-(2,5-dichlorobenzyl)-4-(4-fluorophenoxy)-2-(pyridin-3-yl)-1H-imidazole-5-carboxylic acid] | * * * | – |
| N#Cc1nc(-c2cccnc2)n(Cc2cc(Cl)ccc2Cl)c1C(=O)O [Compound A101, 4-cyano-1-(2,5-dichlorobenzyl)-2-(pyridin-3-yl)-1H-imidazole-5-carboxylic acid] | * * * | – |
| C=Cc1nc(-c2cccnc2)n(Cc2cc(Cl)ccc2Cl)c1C(=O)O [Compound A102, 1-(2,5-dichlorobenzyl)-2-(pyridin-3-yl)-4-vinyl-1H-imidazole-5-carboxylic acid] | * * | – |
| O=C(O)c1c(C2=CCCC2)nc(-c2cccnc2)n1Cc1cc(Cl)ccc1Cl [Compound A103, 4-(1-cyclopenten-1-yl)-1-(2,5-dichlorobenzyl)-2-(pyridin-3-yl)-1H-imidazole-5-carboxylic acid] | * * | – |
| CSc1nc(-c2cccnc2)n(Cc2cc(Cl)ccc2Cl)c1C(=O)O [Compound A104, 1-(2,5-dichlorobenzyl)-4-(methylthio)-2-(pyridin-3-yl)-1H-imidazole-5-carboxylic acid] | * * * | – |
| CCSc1nc(-c2cccnc2)n(Cc2cc(Cl)ccc2Cl)c1C(=O)O [Compound A105, 1-(2,5-dichlorobenzyl)-4-(ethylthio)-2-(pyridin-3-yl)-1H-imidazole-5-carboxylic acid] | * * * | – |
| C[S+]([O-])c1nc(-c2cccnc2)n(Cc2cc(Cl)ccc2Cl)c1C(=O)O (centres unmarked) [Compound A106] | – | 2 to 20 |
| CC[S+]([O-])c1nc(-c2cccnc2)n(Cc2cc(Cl)ccc2Cl)c1C(=O)O (centres unmarked) [Compound A107] | – | 2 to 20 |
| CC(C)(O)c1nc(-c2cccnc2)n(Cc2cc(Cl)ccc2Cl)c1C(=O)O [Compound A108, 1-(2,5-dichlorobenzyl)-4-(2-hydroxypropan-2-yl)-2-(pyridin-3-yl)-1H-imidazole-5-carboxylic acid] | * * * | – |
| CCC(O)(CC)c1nc(-c2cccnc2)n(Cc2cc(Cl)ccc2Cl)c1C(=O)O [Compound A109, 1-(2,5-dichlorobenzyl)-4-(3-hydroxypentan-3-yl)-2-(pyridin-3-yl)-1H-imidazole-5-carboxylic acid] | * * | – |
| Clc1ccc(Cl)c(Cn2c(-c3nnn[nH]3)cnc2-c2cccnc2)c1 [Compound A110, 3-(1-(2,5-dichlorobenzyl)-5-(1H-tetrazol-5-yl)-1H-imidazol-2-yl)pyridine] | * * | – |
| Cc1nc(-c2cccnc2)n(Cc2cc(Cl)ccc2Cl)c1C(=O)NS(C)(=O)=O [Compound A111, 1-(2,5-dichlorobenzyl)-4-methyl-N-(methylsulfonyl)-2-(pyridin-3-yl)-1H-imidazole-5-carboxamide] | – | 2 to 20 |
